In the assay the target is TEM-1 β-lactamase (Escherichia coli, UniProt P62593). Briefly: TEM-1 β-lactamase inhibition assay (nitrocefin hydrolysis, 486 nm). In kind it is biochemical. How it is done: The inhibition of TEM-1 β-lactamase was determined spectrophotometrically. B-lactamase activity was followed by measuring the hydrolysis of nitrocefin, [3-(2,4-dinitrostyryl)-(6R, 7R)-7-(2-thienylacetamido)-ceph-3-em-4-carboxylic acid, E-isomer], (Calbiochem, San Diego, Calif., USA) at 486 nm. Inhibition assays were performed at 25° C. in 50 mM sodium phosphate, 5% DMSO, pH 7.0. […] Inhibitor was added to the enzyme and incubated for ten minutes before the addition of substrate. Inhibition constants (Ki) for the inhibitors are obtained at the desired temperature and solvent conditions by measuring the rate of substrate hydrolysis at increasing amounts of inhibitors.
Sequence of TEM-1 β-lactamase (P62593 24-286 limits assumed): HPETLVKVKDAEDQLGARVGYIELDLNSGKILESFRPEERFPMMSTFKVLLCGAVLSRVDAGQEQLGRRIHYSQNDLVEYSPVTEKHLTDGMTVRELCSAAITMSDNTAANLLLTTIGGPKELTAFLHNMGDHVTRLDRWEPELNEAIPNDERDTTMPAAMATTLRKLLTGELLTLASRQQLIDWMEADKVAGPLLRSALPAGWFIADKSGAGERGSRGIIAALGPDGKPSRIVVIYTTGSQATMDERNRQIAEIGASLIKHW
The competitive inhibition of β-lactamase was determined spectrophotometrically using a Varian (Walnut Creek, Calif.) Cary 100 UV-Visible spectrophotometer. β-lactamase activity was followed by measuring the hydrolysis of nitrocefin, [3-(2,4-dinitrostyryl)-(6R, 7R)-7-(2-thienylacetamido)-ceph-3-em-4-carboxylic acid, E-isomer], (Calbiochem, San Diego, Calif.) at 486 nm. Inhibition assays were performed at 25° C. in 50 mM sodium phosphate, 5% DMSO, pH 7.0. […] Penicillin G (Sigma, St. Louis, Mo.) was also used as a substrate to determine KM and kcat.
Inhibitor was added to protein and incubated for ten minutes before the addition of substrate. Inhibition constants were determined by measuring the loss of P-lactamase activity with increasing inhibitor concentrations and fitting the data to standard equations for competitive inhibition.
These methods can also be used to express and assay recombinant TEM-1 variant of β-lactamase.

The mark [1] stands for this setting: Ki, 25° C., 50 mM sodium phosphate, 5% DMSO, pH 7.0, enzyme 5 nM, nitrocefin 167 μM.
Where [2] appears, read: Ki from Lineweaver-Burke Analysis, values in parenthesis, Lineweaver-Burke analysis.

By Ki is commonly meant a dissociation constant, usually derived from enzyme kinetics or from competition with a known ligand. In turn, `CC(C)(C)OC(=O)Oc1cccc(B(O)O)c1` [Compound BB-1004] came in with an inhibition constant (Ki) under setting [1] of 297 µM.
The same measure, in the same setting: the figure for `O=C(Oc1ccc(F)cc1)c1cc(B(O)O)cc([N+](=O)[O-])c1` [Compound (1q), 3-(4-Fluorophenoxycarbonyl)-5-nitrophenylboronic acid] is 100 ± 8 µM; for `O=C(OCc1ccccc1)c1ccc(B(O)O)cc1` [Compound F1002] it is 148 µM; for `COc1ccccc1OC(=O)c1cc(B(O)O)cc([N+](=O)[O-])c1` [Compound (1l), 3-(2-Methoxylphenoxycarbonyl)-5-nitrophenylboronic acid] it is 116 ± 7 µM.
On the same count and under the same terms, the figure for `CCCCOC(=O)c1cccc(B(O)O)c1` [Compound BB-1003] is 231 µM; for `O=C(Oc1cccnc1Cl)c1cc(B(O)O)cc([N+](=O)[O-])c1` [Compound (1s), 3-(2-Chloro-3-pyridyloxycarbonyl)-5-nitrophenylboronic acid] it is 42.3 ± 2.4 µM; for `O=C(O)c1cc(NC(=O)c2ccccc2F)cc(B(O)O)c1` [Compound (4a), 3-(2-Fluorobenzamido)-5-carboxylphenylboronic acid] it is 143 ± 9 µM.
On the same count and under the same terms, for `O=C(Oc1ccccc1F)c1cc(B(O)O)cc([N+](=O)[O-])c1` [Compound (1o), 3-(2-Fluorophenoxycarbonyl)-5-nitrophenylboronic acid] the value was 49.3 ± 4.6 µM.
In the case of `O=C(OCc1c(Cl)cccc1Cl)c1cc(B(O)O)cc([N+](=O)[O-])c1` [Compound (3a), 3-(2,6-Dichlorobenzyloxycarbonyl)-5-nitrophenylboronic], the Ki was 4.97 µM under setting [2] and 34 ± 2.9 µM under setting [1].
Turning to `Cc1cccc(OC(=O)c2cc(B(O)O)cc([N+](=O)[O-])c2)c1` [(1m), 3-(3-Methylphenoxycarbonyl)-5-nitrophenylboronic acid], under setting [1], the Ki was 114 ± 12 µM.
As to `CCOC(=O)c1ccc(OC(=O)c2cc(B(O)O)cc([N+](=O)[O-])c2)cc1` [Compound (1e), 3-(4-Ethoxycarbonylphenoxycarbonyl)-5-nitrophenylboronic acid], the Ki under setting [1] was more than 1000 µM.
`O=C(Oc1ccccc1Br)c1cc(B(O)O)cc([N+](=O)[O-])c1` [(1u), 3-(2-Bromophenoxycarbonyl)-5-nitro-phenylboronic acid]: the Ki runs as follows: under setting [2], 1.68 µM; under setting [1], 25 ± 2.5 µM.
Consider `Cc1ccccc1OC(=O)c1cc(B(O)O)cc([N+](=O)[O-])c1` [Compound (1k), 3-(2-Methylphenoxycarbonyl)-5-nitro-phenylboronic acid], for which, under setting [1], the affinity corresponds to a Ki of 130 ± 18 µM.
`O=C(c1cccc(B(O)O)c1)N1CCCC1` [Compound BB-1005] returned a Ki under setting [1] of 392 µM.
`O=C(Oc1ccccc1)c1cc(B(O)O)cc([N+](=O)[O-])c1` [Compound (1t), 3-Phenoxycarbonyl-5-nitrophenylboronic acid]: the inhibition constant (Ki) was found to be 6.54 µM under setting [2] and 95 ± 8.7 µM under setting [1].
Under setting [1], `OB(O)c1cccc2c1Sc1ccccc1S2` [Compound F1012] yielded a Ki of 113 µM.
For the compound `O=C(OCc1cccc([N+](=O)[O-])c1)c1cc(B(O)O)cc([N+](=O)[O-])c1` [Compound (3b), 3-(3-Nitrobenzyloxycarbonyl)-5-nitrophenylboronic acid], the Ki under setting [2] was determined as 2.76 µM and the affinity under setting [1] corresponds to a Ki of 27 ± 3.4 µM.
In the case of `O=C(OCc1cccc(Cl)c1)c1cc(B(O)O)cc([N+](=O)[O-])c1` [Compound (3c), 3-(3-Chlorobenzyloxycarbonyl)-5-nitrophenylboronic acid], the Ki is, setting by setting: under setting [2], 2.35 µM; under setting [1], 25 ± 1.5 µM.
As to `Nc1cc(B(O)O)cc(C(=O)O)c1` [Compound (5a), 3–5-carboxylphenylboronic acid], the affinity under setting [1], expressed as Ki, was 727 ± 49 µM.
Regarding `O=C(Oc1ccncc1)c1cc(B(O)O)cc([N+](=O)[O-])c1` [(1r), 3-(4-pyridyloxycarbonyl)-5-nitro-phenylboronic acid], the Ki under setting [1] turned out to be 138 ± 2.7 µM.

The record behind these values is patent US7183267B2, “β-lactamase inhibitors and methods of use thereof” (priority 2003, dated 2007).
